This passage reports IC50 and Activity results from ChEMBL document CHEMBL3612026, “Biological activity of N(4)-boronated derivatives of 2'-deoxycytidine, potential agents for boron-neutron capture therapy” (Bioorg Med Chem, 2015).

The nature of data set [1]: Cytotoxicity against human SCC15 cells after 48 hrs by neutral red assay. Format: functional, cell-based. As to conditions: SCC-15, 48 h.
Data set [2] can be described thus: Cytotoxicity against human SCC15 cells after 48 hrs by XTT assay. The class given is functional, cell-based. The following applies: SCC-15, 48 h. Background: Tetrazolium dyes change colour on reduction, which living cells bring about.
Data set [3] has as its system BJ. The data set is described as follows: Cytotoxicity against human BJ cells after 48 hrs by neutral red assay. Format: cell-based.
Data set [4] has as its system BJ. The experiment in a line: Cytotoxicity against human BJ cells after 48 hrs by XTT assay. The class given is cell-based.
Data set [5] deals with SCC-15. The experiment in a line: Induction of apoptosis in human SCC15 cells assessed as induction of […] fragmentation at 20 to 40 mM after 48 hrs by DAPI staining-based fluorescence assay. Format: functional, cell-based.
In data set [6] the test system is BJ. The experiment in a line: Induction of apoptosis in human BJ cells assessed as induction of […] fragmentation at 5 to 40 mM after 48 hrs by DAPI staining-based fluorescence assay. As to conditions: 40000 µM. Format: cell-based.
The subject of data set [7] is SCC-15. The data set is described as follows: Induction of apoptosis in human SCC15 cells assessed as induction of […] fragmentation at 20 to 40 mM after 48 hrs by DAPI staining-based laser scanning confocal microscopic analysis. Format: functional, cell-based.
Data set [8] deals with BJ. The data set is described as follows: Induction of apoptosis in human BJ cells assessed as induction of […] fragmentation at 20 to 40 mM after 48 hrs by DAPI staining-based laser scanning confocal microscopic analysis. The class given is cell-based. As to conditions: 40000 µM.
For data set [9], the system named is SCC-15. The experiment in a line: Binding affinity to DNA in human SCC-15 cells at 1 mM after 5 days by laser desorption/ionization mass spectrometric analysis. The class given is cell-based.

Molecules are shown by their SMILES. Calls of active or inactive are those of the source. The calls are words filed in the database; no cut-off is given here.

On to `CC1(C)OB(CNc2ccn([C@H]3C[C@@H](O)[C@@H](CO)O3)c(=O)n2)OC1(C)C`, for which the IC50 – broadly, the concentration that gives 50% inhibition – stood at 16.4 mM in data set [1], 18.8 mM in data set [2], 49.5 mM in the data set on BJ [3] and 45.1 mM in the data set on BJ [4]. The result with SCC-15 [5], in the data set with SCC-15 [7] and in the data set on SCC-15 [9] was Active. The Activity result in the data set with BJ [6] and in the data set on BJ [8] was “Non-toxic” in each case.
